Assay results: US20230398125A1, “TREATING HEPATITIS” (Albireo AB, priority 2022, published 2023)
Marks after values point to notes of the source that are not given here.

Key:
[1] = molecular target: T1, Human NTCP (Homo sapiens, UniProt Q14973); test: [3H]TC transport in NTCP-HEK293 cells; format: cell-based; details: read-out: IC50 [3H]taurocholic acid uptake
T1 construct: expressed in transfected cells; peptide purchased from Pharmaron
T1 sequence (Q14973 1-349): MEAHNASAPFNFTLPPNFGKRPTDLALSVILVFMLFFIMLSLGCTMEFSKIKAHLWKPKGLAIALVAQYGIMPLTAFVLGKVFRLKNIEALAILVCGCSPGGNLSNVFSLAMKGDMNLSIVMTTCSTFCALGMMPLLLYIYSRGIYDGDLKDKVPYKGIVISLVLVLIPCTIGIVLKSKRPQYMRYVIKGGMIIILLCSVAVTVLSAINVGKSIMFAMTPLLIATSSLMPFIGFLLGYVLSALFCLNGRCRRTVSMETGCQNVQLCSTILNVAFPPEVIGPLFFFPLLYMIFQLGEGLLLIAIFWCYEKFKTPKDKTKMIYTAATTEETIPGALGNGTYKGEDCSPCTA
Description: Human embryonic kidney (HEK293) cells were stably transfected with human NTCP, C-terminally tagged with the FLAG epitope (here referred to as NTCP-HEK293 cells). Cells were maintained at 37° C., 5% CO2 and 95% humidity in DMEM/F-12 medium (Thermo Fisher Scientific, Waltham, Mass., USA) supplemented with 10% fetal calf serum (Sigma-Aldrich, St. Louis, Mo., USA), 4 mM L-glutamine, and penicillin/streptomycin. HepG2 cells stably transfected with NTCP-FLAG (here referred to as NTCP-HepG2) were cultured under the same conditions in DMEM with all supplements listed above, except for L-glutamine. […]
Bile acid transport measurements were performed in the NTCP-HEK293 cells with tritium-labelled taurocholic acid (here referred to as [^3H]TC) (20 Ci/mmol, 0.09 mCi/mL, Perkin Elmer, Waltham, USA). […] Cell-associated radioactivity of [^3H]TC or [^3H]preS1 was quantified by liquid scintillation counting in a Packard Microplate Scintillation Counter TopCount NXT (Packard Instrument Company, Meriden, USA). Transport rates and [^3H]preS1 binding were determined in counts per minute (cpm). The mean of the 0% control was subtracted and the net [^3H]TC transport rates and net [^3H]preS1 binding rates, respectively, were expressed as % of control. IC50 values were calculated from quadruplicate determinations by GraphPad Prism 6 (GraphPad, San Diego, Calif., USA). […]

[2] = system: HBV genotype C; test: Serum HBV DNA in HBV-infected PXB mice; format: in vivo, hepatitis B virus; details: for serum HBV DNA levels: HBV-infected PXB mice, group mean, assay limit 4×10^4 copies/mL serum
Description: Target volume of blood was collected from all surviving animals under isoflurane anesthesia via the retro-orbital plexus/sinus using Intramedic™ Polyethylene Tubing at each time point. Two microliters (2 μL) from the collected blood were used for human albumin measurements. The remaining blood was centrifuged to separate serum to be used for analyzing the indicated biomarkers. Blood samples were collected according to Table 8.
The individual blood samples of the animals were left at room temperature for at least 5 minutes to coagulate and then centrifuged at 13200×g, 4° C. for 3 minutes to obtain serum. The serum was divided into separate labeled microtubes and stored at −80° C. until analysis.
Real-time PCR detection was used to measure the serum HBV DNA concentration using the KUBIX HBV qPCR Kit (KUBIX Inc.) and CFX96 Touch™ Real-Time PCR Detection System (Bio-Rad Laboratories, Inc., Hercules, Calif., USA). Ten microliters (10 μL) of the HBV 2×PCR Solution were added into 10 μL of the heated sample. The initial activation was conducted at 95° C. for 2 minutes. Subsequent PCR amplification consisted of 45 cycles of denaturation at 95° C. for 5 seconds and annealing and extension at 54° C. for 30 seconds per cycle in a CFX96 Touch™ Real-Time PCR Detection System. The average serum HBV DNA level was calculated from the values of the two separate wells.
The lowest quantification limit of this assay was 4×10^4 copies/mL serum.

For `CCCCC1CN(c2ccccc2)c2cc(SC)c(O/C=C(\F)C(=O)O)cc2S(=O)(=O)N1C` (centres unmarked) [Compound 1, (Z)-3-((3-butyl-2-methyl-7-(methylthio)-1,1-dioxido-5-phenyl-2,3,4,5-tetrahydro-1,2,5-benzothiadiazepin-8-yl)oxy)-2-fluoroacrylic acid], the IC50 [1] was 186 nM, the “serum HBV DNA compared to controls” value ([2]; 30 mg/kg, Day 7) was “lower” and the “serum HBV DNA levels” value ([2]; 10 mg/kg p.o. once daily Day 0-14, Day 0 (pre-dose)) was 4.0 × 10^4. For the same compound, the “serum HBV DNA levels” value ([2]; 10 mg/kg p.o. once daily Day 0-14, Day 7) was 1.4 × 10^5, the “serum HBV DNA levels” value ([2]; 10 mg/kg p.o. once daily Day 0-14, Day 14) was 8.5 × 10^5 and the “serum HBV DNA levels” value ([2]; 10 mg/kg p.o. once daily Day 0-14, Day 21) was 1.3 × 10^6. The “serum HBV DNA levels” value ([2]; 10 mg/kg p.o. once daily Day 0-14, Day 28) was 8.5 × 10^6, the “serum HBV DNA levels” value ([2]; 10 mg/kg p.o. once daily Day 0-14, Day 35) was 2.7 × 10^7* and the “serum HBV DNA levels” value ([2]; 10 mg/kg p.o. once daily Day 0-14, Day 42) was 1.2 × 10^8*. For the same compound, the “serum HBV DNA levels” value ([2]; 30 mg/kg p.o. once daily Day 0-14, Day 0 (pre-dose)) was 4.0 × 10^4, the “serum HBV DNA levels” value ([2]; 30 mg/kg p.o. once daily Day 0-14, Day 7) was 6.1 × 10^4 and the “serum HBV DNA levels” value ([2]; 30 mg/kg p.o. once daily Day 0-14, Day 14) was 1.9 × 10^5. For the same compound, the “serum HBV DNA levels” value ([2]; 30 mg/kg p.o. once daily Day 0-14, Day 21) was 3.1 × 10^5, the “serum HBV DNA levels” value ([2]; 30 mg/kg p.o. once daily Day 0-14, Day 28) was 2.7 × 10^6 and the “serum HBV DNA levels” value ([2]; 30 mg/kg p.o. once daily Day 0-14, Day 35) was 1.1 × 10^7. For the same compound, the “serum HBV DNA levels” value ([2]; 30 mg/kg p.o. once daily Day 0-14, Day 42) was 5.4 × 10^7 and the “effect against HBV genotype C infection in PXB-mice” value ([2]; oral dosing before HBV infection) was “prophylactic effects”.
